Mortality data for 28 molecules are collected here from ChEMBL document CHEMBL3044558, “Structure-activity relationship development of dihaloaryl triazole compounds as insecticides and acaricides. 1. Phenyl thiophen-2-yl triazoles” (2007).

One experiment concerns Heliothis virescens. Description: Insecticidal activity against Heliothis virescens (tobacco budworm) second-instar larvae infested on 400 ppm compound pre-treated cotton cotyledon disk assessed as insect mortality measured 5 days post compound treatment under green house conditions. In kind it is functional.
Experiment [1] has as its system Aphis gossypii. Briefly: Insecticidal activity against Aphis gossypii (cotton aphid) infested one week old Crookneck squash plants assessed as insect mortality at 50 ppm measured after 3 days post compound application under green house conditions. In kind it is functional. To be noted: 72 h.
In the next experiment the test system is Tetranychus urticae. Briefly: Insecticidal activity against female Tetranychus urticae (two-spotted spider mite) infested cotton leaf disks followed by 2.5 ppm compound spraying after oviposit assessed as insect mortality measured after 6 days post compound application under green house conditions. The format is functional. To be noted: foliar, 144 h.
For a further experiment, the system named is Trichoplusia ni. Description: Insecticidal activity against Trichoplusia ni (cabbage looper) second-instar larvae infested on 400 ppm compound pre-treated cabbage leaf disk assessed as insect mortality measured 5 days post compound treatment under green house conditions. In kind it is functional. Conditions: at 400 ppm.
Experiment [2] relates to Bemisia tabaci. Briefly: Insecticidal activity against Bemisia tabaci (sweet potato whitefly) second-instar larvae infested five weeks old cotton plants followed by compound 250 ppm compound spraying after insect oviposit assessed as insect mortality measured 13 days post compound treatment under green house conditions. In kind it is functional.
For a further experiment, the system named is Spodoptera exigua. Description: Insecticidal activity against Spodoptera exigua second-instar larvae feeded on 400 ppm compound treated lepidopteran diet assessed as insect mortality measured 5 days post compound treatment under green house conditions. The format is functional. Conditions: at 400 ppm.
Experiment [3] deals with Aphis gossypii.
Experiment [4] relates to Bemisia tabaci.

The source made the active and inactive calls. The rule behind the calls is not given here.

`Cn1nc(-c2c(F)cccc2Cl)nc1-c1sc(-c2ccc(C(F)(F)F)cc2)cc1Cl`: the mortality with Heliothis virescens was 90%; in the experiment on Trichoplusia ni it was 90%; in the experiment with Bemisia tabaci [2], below 50%; in the experiment with Spodoptera exigua, 60%. The mortality at 50 ppm in the experiment with Aphis gossypii [1] is 90%. The mortality at 2.5 ppm in the experiment with Tetranychus urticae is 90%.
On to `Cn1nc(-c2c(F)cccc2Cl)nc1-c1sc(-c2ccc(OC(F)(F)F)cc2)c(Br)c1Cl`, for which the mortality with Heliothis virescens is reported as 90%; with Trichoplusia ni, 70%; with Bemisia tabaci [2], below 50%; in the experiment on Spodoptera exigua it was 90%. Further, in the experiment on Aphis gossypii [1], the mortality at 50 ppm worked out at 60%. Further, the mortality at 2.5 ppm in the experiment on Tetranychus urticae came out at 80%.
In the case of `CSc1ccc(-c2cc(Cl)c(-c3nc(-c4c(F)cccc4Cl)nn3C)s2)cc1`, the mortality with Heliothis virescens is on record as 90%; in the experiment with Trichoplusia ni it was 80%; in the experiment on Bemisia tabaci [2], below 50%; with Spodoptera exigua, 60%. For the same molecule, the mortality at 50 ppm in the experiment with Aphis gossypii [1] is 60%. Moreover, the mortality at 2.5 ppm in the experiment with Tetranychus urticae stood at 90%.
Turning to `CCOc1ccc(-c2cc(Cl)c(-c3nc(-c4c(F)cccc4F)nn3C)s2)cc1`, the mortality in the experiment with Heliothis virescens is 90%; with Trichoplusia ni, below 50%; in the experiment on Spodoptera exigua, 60%. The mortality entry with Aphis gossypii [3] and with Bemisia tabaci [4] was “inactive” each time. In addition, the mortality at 2.5 ppm in the experiment on Tetranychus urticae stood at 80%.
Regarding `Cc1c(-c2ccc(OC(F)(F)C(F)Cl)cc2)sc(-c2nc(-c3c(F)cccc3Cl)nn2C)c1C` (stereo not given), the mortality in the experiment with Heliothis virescens is given as 90%; in the experiment on Trichoplusia ni it was below 50%; in the experiment with Bemisia tabaci [2] it was 60%; in the experiment with Spodoptera exigua it was 60%. For the same molecule, the mortality at 50 ppm in the experiment on Aphis gossypii [1] was below 50%. Besides, in the experiment on Tetranychus urticae, the mortality at 2.5 ppm was found to be 80%.
With `Cc1sc(-c2nc(-c3c(F)cccc3Cl)nn2C)c(C)c1-c1ccc(OC(F)(F)F)cc1`, the mortality in the experiment with Heliothis virescens is 90%; with Trichoplusia ni, below 50%; in the experiment on Bemisia tabaci [2], 60%; in the experiment on Spodoptera exigua, 90%. In the experiment on Aphis gossypii [1], the mortality at 50 ppm came out at 70%. For the same molecule, the mortality at 2.5 ppm in the experiment with Tetranychus urticae amounted to 90%.
As to `Cc1cc(-c2ccc(OC(F)(F)C(Cl)Cl)cc2)sc1-c1nc(-c2c(F)cccc2Cl)nn1C`, the mortality in the experiment with Heliothis virescens stood at 90%; in the experiment with Trichoplusia ni, 80%; in the experiment on Bemisia tabaci [2] it was 50%; with Spodoptera exigua it was 90%. Further, in the experiment with Aphis gossypii [1], the mortality at 50 ppm amounted to 90%. The mortality at 2.5 ppm in the experiment on Tetranychus urticae was determined as 90%.
`CCOc1ccc(-c2sc(-c3nc(-c4c(F)cccc4Cl)nn3C)c(Cl)c2Br)cc1`: the mortality in the experiment on Heliothis virescens is listed as 90%; in the experiment on Trichoplusia ni it was below 50%; in the experiment on Spodoptera exigua, 90%. The mortality at 50 ppm in the experiment with Aphis gossypii [1] is below 50%. The mortality at 2.5 ppm with Tetranychus urticae was 60%. Also, the mortality entry in the experiment on Bemisia tabaci [4] is “inactive”.
As to `Cc1cc(-c2ccc(C(F)(F)F)cc2)sc1-c1nc(-c2c(F)cccc2Cl)nn1C`, the mortality in the experiment on Heliothis virescens was 90%; in the experiment on Trichoplusia ni, 90%; with Bemisia tabaci [2], below 50%; with Spodoptera exigua it was 90%. For the same molecule, in the experiment with Aphis gossypii [1], the mortality at 50 ppm is below 50%. Further, in the experiment with Tetranychus urticae, the mortality at 2.5 ppm was 90%.
`Cc1cc(-c2ccc(OC(C)C)cc2)sc1-c1nc(-c2c(F)cccc2Cl)nn1C`: the mortality with Heliothis virescens came to 80%; in the experiment on Trichoplusia ni, 90%; in the experiment on Spodoptera exigua it was 60%. Moreover, the mortality entry with Aphis gossypii [3] is “inactive”. In the experiment with Tetranychus urticae, the mortality at 2.5 ppm came to 60%.
Regarding `Cc1c(-c2ccc(OC(F)=C(Cl)Cl)cc2)csc1-c1nc(-c2c(F)cccc2Cl)nn1C`, the mortality in the experiment on Heliothis virescens is 90%; in the experiment with Trichoplusia ni it was below 50%; in the experiment with Bemisia tabaci [2], 70%; with Spodoptera exigua, 80%. For the same molecule, the mortality at 50 ppm in the experiment with Aphis gossypii [1] amounted to 70%. Besides, the mortality at 2.5 ppm with Tetranychus urticae was 90%.
As to `CCOc1ccc(-c2csc(-c3nc(-c4c(F)cccc4Cl)nn3C)c2C)cc1`, the mortality in the experiment on Heliothis virescens was found to be 90%; in the experiment on Trichoplusia ni, 90%; with Bemisia tabaci [2], 90%; in the experiment with Spodoptera exigua, 80%. The mortality at 50 ppm in the experiment on Aphis gossypii [1] stood at 50%. Further, the mortality at 2.5 ppm with Tetranychus urticae came out at 90%.
As for `Cc1sc(-c2nc(-c3c(F)cccc3Cl)nn2C)c(C)c1-c1ccc(Cl)cc1`, the mortality was 90% in the experiment on Heliothis virescens, below 50% in the experiment on Trichoplusia ni and 80% with Spodoptera exigua. In addition, the mortality at 50 ppm in the experiment on Aphis gossypii [1] is 50%. Besides, the mortality at 2.5 ppm in the experiment on Tetranychus urticae was 80%. Moreover, in the experiment on Bemisia tabaci [4], the mortality result was “inactive”.
Consider `Cc1cc(-c2ccc(OC(F)(F)C(F)C(F)(F)F)cc2)sc1-c1nc(-c2c(F)cccc2Cl)nn1C` (stereo not given), for which the mortality in the experiment on Heliothis virescens is given as 90%; with Trichoplusia ni, 90%; in the experiment on Bemisia tabaci [2], below 50%; in the experiment with Spodoptera exigua it was 80%. Also, in the experiment on Aphis gossypii [1], the mortality at 50 ppm was 90%. Moreover, in the experiment with Tetranychus urticae, the mortality at 2.5 ppm came to 90%.
`Cc1cc(-c2cccc(C(F)(F)F)c2)sc1-c1nc(-c2c(F)cccc2Cl)nn1C`: the mortality in the experiment with Heliothis virescens is reported as below 50%; in the experiment with Trichoplusia ni, 90%; in the experiment on Spodoptera exigua, 70%. The mortality at 50 ppm in the experiment with Aphis gossypii [1] was below 50%. The mortality at 2.5 ppm in the experiment with Tetranychus urticae is below 50%. Besides, the mortality entry in the experiment on Bemisia tabaci [4] was “inactive”.
As to `Cc1c(-c2ccc(OC(F)(F)C(F)C(F)(F)F)cc2)csc1-c1nc(-c2c(F)cccc2Cl)nn1C` (stereo not given), the mortality with Heliothis virescens amounted to 90%; in the experiment with Trichoplusia ni, 90%; in the experiment with Bemisia tabaci [2], 90%; in the experiment with Spodoptera exigua, 60%. Further, the mortality at 50 ppm with Aphis gossypii [1] came to 90%. Besides, in the experiment with Tetranychus urticae, the mortality at 2.5 ppm stood at 90%.
For `Cc1cc(-c2cccc(C(F)(F)F)c2F)sc1-c1nc(-c2c(F)cccc2Cl)nn1C`, the figures for the mortality in the experiment with Heliothis virescens, in the experiment on Trichoplusia ni and with Spodoptera exigua were 90%, 90% and 60%, respectively. Moreover, the mortality at 50 ppm in the experiment with Aphis gossypii [1] stood at 60%. Also, the mortality at 2.5 ppm in the experiment with Tetranychus urticae came out at 90%. The mortality result in the experiment with Bemisia tabaci [4] is “inactive”.
Consider `CCOc1ccc(-c2sc(-c3nc(-c4c(F)cccc4Cl)nn3C)c(C)c2C)cc1`, for which the mortality was below 50% in the experiment on Heliothis virescens, 80% in the experiment on Trichoplusia ni and 90% in the experiment with Spodoptera exigua. Further, the mortality at 50 ppm in the experiment on Aphis gossypii [1] is below 50%. Besides, in the experiment with Tetranychus urticae, the mortality at 2.5 ppm was found to be 90%. Further, in the experiment on Bemisia tabaci [4], the mortality entry was “inactive”.
Turning to `Cc1sc(-c2nc(-c3c(F)cccc3Cl)nn2C)c(C)c1-c1ccc(OC(F)(F)C(F)Br)cc1` (stereo not given), the mortality in the experiment with Heliothis virescens worked out at 90%; in the experiment with Bemisia tabaci [2] it was 80%; in the experiment on Spodoptera exigua it was 80%. The mortality at 50 ppm with Aphis gossypii [1] worked out at 50%. For the same molecule, in the experiment on Tetranychus urticae, the mortality at 2.5 ppm stood at 80%.
On to `Cc1cc(-c2ccc(C(C)C)cc2)sc1-c1nc(-c2c(F)cccc2Cl)nn1C`, for which the mortality with Heliothis virescens came out at 90%; in the experiment with Trichoplusia ni, 90%; in the experiment on Spodoptera exigua, 70%. Further, the mortality at 50 ppm in the experiment with Aphis gossypii [1] is below 50%. Further, the mortality at 2.5 ppm in the experiment with Tetranychus urticae turned out to be 90%. In the experiment with Bemisia tabaci [4], the mortality result was “inactive”.
On to `Cn1nc(-c2c(F)cccc2F)nc1-c1sc(-c2ccc(OC(F)(F)F)cc2)cc1Cl`, for which the mortality in the experiment with Heliothis virescens was 80%; with Trichoplusia ni, below 50%; in the experiment with Spodoptera exigua, below 50%. For the same molecule, the mortality at 50 ppm in the experiment on Aphis gossypii [1] came out at 80%. In addition, in the experiment on Tetranychus urticae, the mortality at 2.5 ppm stood at 90%. Also, the mortality entry in the experiment with Bemisia tabaci [4] was “inactive”.
Take `Cc1c(-c2ccc(OC(F)(F)F)cc2)sc(-c2nc(-c3c(F)cccc3Cl)nn2C)c1C`: the mortality in the experiment on Heliothis virescens was below 50%; with Trichoplusia ni, 90%; in the experiment with Bemisia tabaci [2] it was 70%; in the experiment on Spodoptera exigua it was 80%. Also, in the experiment with Aphis gossypii [1], the mortality at 50 ppm is below 50%. Besides, in the experiment on Tetranychus urticae, the mortality at 2.5 ppm came out at 90%.
As for `Cc1c(-c2ccc(OC(F)(F)C(Cl)Cl)cc2)csc1-c1nc(-c2c(F)cccc2Cl)nn1C`, the mortality with Heliothis virescens was 90%; in the experiment on Trichoplusia ni it was below 50%; with Bemisia tabaci [2], 90%; in the experiment on Spodoptera exigua it was 90%. The mortality at 50 ppm in the experiment on Aphis gossypii [1] stood at 90%. Moreover, the mortality at 2.5 ppm in the experiment with Tetranychus urticae worked out at 90%.
In the case of `Cc1cc(-c2ccc(Cl)cc2)sc1-c1nc(-c2c(F)cccc2Cl)nn1C`, the mortality in the experiment on Heliothis virescens came out at 90%; with Trichoplusia ni, 90%; in the experiment with Bemisia tabaci [2], 60%; in the experiment with Spodoptera exigua it was 90%. Also, the mortality at 50 ppm with Aphis gossypii [1] was determined as 60%. In the experiment on Tetranychus urticae, the mortality at 2.5 ppm was 90%.
Take `Cc1sc(-c2nc(-c3c(F)cccc3Cl)nn2C)c(C)c1-c1ccc(OC(F)(F)C(F)Cl)cc1` (stereo not given): the mortality is reported as 80% in the experiment on Heliothis virescens, below 50% in the experiment with Trichoplusia ni, 80% with Bemisia tabaci [2] and 80% with Spodoptera exigua. The mortality at 50 ppm in the experiment with Aphis gossypii [1] is below 50%. Further, in the experiment with Tetranychus urticae, the mortality at 2.5 ppm was 70%.
Regarding `Cc1cc(-c2ccc(F)cc2)sc1-c1nc(-c2c(F)cccc2Cl)nn1C`, the mortality in the experiment on Heliothis virescens amounted to 90%; in the experiment on Trichoplusia ni, 90%; with Spodoptera exigua, 80%. Besides, in the experiment with Aphis gossypii [1], the mortality at 50 ppm was below 50%. The mortality at 2.5 ppm in the experiment with Tetranychus urticae worked out at 60%. For the same molecule, the mortality entry in the experiment on Bemisia tabaci [4] is “inactive”.
On to `Cn1nc(-c2c(F)cccc2Cl)nc1-c1sc(-c2ccc(Br)cc2)cc1Cl`, for which the mortality worked out at 90% in the experiment on Heliothis virescens, 90% in the experiment on Trichoplusia ni and 80% with Spodoptera exigua. For the same molecule, in the experiment on Aphis gossypii [1], the mortality at 50 ppm came out at 90%. For the same molecule, the mortality at 2.5 ppm with Tetranychus urticae stood at 90%. Moreover, the mortality result in the experiment on Bemisia tabaci [4] is “inactive”.
As to `Cc1cc(C2CCC(OC(F)(F)C(F)Cl)CC2)sc1-c1nc(-c2c(F)cccc2Cl)nn1C` (stereo not given), the mortality with Heliothis virescens, in the experiment on Trichoplusia ni and in the experiment with Spodoptera exigua was 90% each time. Also, the mortality at 50 ppm in the experiment on Aphis gossypii [1] was below 50%. For the same molecule, the mortality at 2.5 ppm with Tetranychus urticae came out at 80%.
